Reference: PubChem BioAssay AID1918941 (Molecular Pharmacology Branch, DTP, NCI, 2023)

Test system: SW 1271 complex spheroids, viability
Assay: Anticancer human tumor SW 1271 cell line growth inhibition [LSD1];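 also: spheroids exposed to agents for 7 days before luminescence read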;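 as to viability, T/C: 100% = DMSO vehicle control viability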
Settings: for IC50: curve of first compound; for viability, T/C: stronger effect = lower value
How it was run: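 Complex spheroids of tumor cells with HUVEC and human MSCs, exposed to iadademstat combined with other agents. Each agent tested in half-log steps from near clinical Cmax (else 10 microM top), DMSO ≤0.25%.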

[1] = second compound 0.1 µM, first compound 0.0316 µM
[2] = second compound 0.1 µM, first compound 0.1 µM
[3] = second compound 0.1 µM, first compound 0.316 µM
[4] = second compound 0.1 µM, first compound 1 µM
[5] = second compound 0.1 µM, first compound 3.16 µM
[6] = second compound 0.1 µM, first compound 10 µM
[7] = second compound 0.316 µM, first compound 0.0316 µM
[8] = second compound 0.316 µM, first compound 0.1 µM
[9] = second compound 0.316 µM, first compound 0.316 µM
[10] = second compound 0.316 µM, first compound 1 µM
[11] = second compound 0.316 µM, first compound 3.16 µM
[12] = second compound 0.316 µM, first compound 10 µM
[13] = second compound 1 µM, first compound 0.0316 µM
[14] = second compound 1 µM, first compound 0.1 µM
[15] = second compound 1 µM, first compound 0.316 µM
[16] = second compound 1 µM, first compound 1 µM
[17] = second compound 1 µM, first compound 3.16 µM
[18] = second compound 1 µM, first compound 10 µM
[19] = second compound 3.16 µM, first compound 0.0316 µM
[20] = second compound 3.16 µM, first compound 0.1 µM
[21] = second compound 3.16 µM, first compound 0.316 µM
[22] = second compound 3.16 µM, first compound 1 µM
[23] = second compound 3.16 µM, first compound 3.16 µM
[24] = second compound 3.16 µM, first compound 10 µM
[25] = second compound 10 µM, first compound 0.0316 µM
[26] = second compound 10 µM, first compound 0.1 µM
[27] = second compound 10 µM, first compound 0.316 µM
[28] = second compound 10 µM, first compound 1 µM
[29] = second compound 10 µM, first compound 3.16 µM
[30] = second compound 10 µM, first compound 10 µM
[31] = second compound 0.1 µM, first compound 0.00316 µM
[32] = second compound 0.1 µM, first compound 0.01 µM
[33] = second compound 0.316 µM, first compound 0.00316 µM
[34] = second compound 0.316 µM, first compound 0.01 µM
[35] = second compound 1 µM, first compound 0.00316 µM
[36] = second compound 1 µM, first compound 0.01 µM
[37] = second compound 3.16 µM, first compound 0.00316 µM
[38] = second compound 3.16 µM, first compound 0.01 µM
[39] = second compound 10 µM, first compound 0.00316 µM
[40] = second compound 10 µM, first compound 0.01 µM

Structure (SMILES)	IC50 (second compound 0.1 µM)	IC50 (second compound 0.316 µM)	IC50 (second compound 1 µM)	IC50 (second compound 3.16 µM)	IC50 (second compound 10 µM)	viability, T/C [1]	viability, T/C [2]	viability, T/C [3]	viability, T/C [4]	viability, T/C [7]	viability, T/C [8]	viability, T/C [9]	viability, T/C [10]	viability, T/C [13]	viability, T/C [14]	viability, T/C [15]	viability, T/C [16]	viability, T/C [19]	viability, T/C [20]	viability, T/C [21]	further results
CC(C)c1c(-c2ccccc2)nc2c(C#N)c[nH]n2c1=O + NC1CC1c1ccc(-c2cccc(O)c2)cc1	> 10000 nM	> 10000 nM	> 10000 nM	9230 nM	> 10000 nM	71.8%	86%	78.7%	77.5%	74.7%	70.4%	80.9%	52.4%	66.4%	96.2%	78.4%	75%	70.5%	68.4%	70%	viability, T/C [5]: 73.2%; viability, T/C [6]: 72.9%; viability, T/C [11]: 58.5%; viability, T/C [12]: 61.6%; viability, T/C [17]: 58.6%; viability, T/C [18]: 61.3%; viability, T/C [22]: 58.2%; viability, T/C [23]: 58.9%; viability, T/C [24]: 49.2%; viability, T/C [25]: 56.6%; viability, T/C [26]: 63%; viability, T/C [27]: 82.6%; viability, T/C [28]: 61.6%; viability, T/C [29]: 50.8%; viability, T/C [30]: 54.1%
CC1COCCN1c1cc(-c2ccnn2C)c2ccnc(-c3ccn[nH]3)c2n1 (stereo not given) + NC1CC1c1ccc(-c2cccc(O)c2)cc1	48.5 nM	23.8 nM	37.2 nM	36.8 nM	31.3 nM	51.6%	42.9%	39.4%	26.6%	49.7%	40.6%	39.1%	31%	55.4%	46.6%	30.6%	28.8%	54.7%	38.2%	40.2%	viability, T/C [31]: 65.2%; viability, T/C [32]: 62.7%; viability, T/C [33]: 55.5%; viability, T/C [34]: 55.6%; viability, T/C [35]: 63.7%; viability, T/C [36]: 51.1%; viability, T/C [37]: 58%; viability, T/C [38]: 54.3%; viability, T/C [22]: 22.6%; viability, T/C [39]: 67.1%; viability, T/C [40]: 51.5%; viability, T/C [25]: 50.3%; viability, T/C [26]: 41.6%; viability, T/C [27]: 40.2%; viability, T/C [28]: 24.9%
COc1ccc([C@@H](O)c2cc(-c3ncnc4cc(N5CCOCC5)ccc34)c(F)cc2Cl)nn1 + NC1CC1c1ccc(-c2cccc(O)c2)cc1	616 nM	463 nM	664 nM	355 nM	351 nM	78.6%	79.9%	55%	44.4%	76.4%	76.8%	52.2%	38%	72.9%	76.6%	60.3%	43.7%	69.5%	64.8%	49.2%	viability, T/C [5]: 31%; viability, T/C [6]: 21.9%; viability, T/C [11]: 37.3%; viability, T/C [12]: 22.1%; viability, T/C [17]: 31.7%; viability, T/C [18]: 26.4%; viability, T/C [22]: 38.5%; viability, T/C [23]: 30.5%; viability, T/C [24]: 19.7%; viability, T/C [25]: 60.5%; viability, T/C [26]: 58.4%; viability, T/C [27]: 50.3%; viability, T/C [28]: 40.2%; viability, T/C [29]: 27.5%; viability, T/C [30]: 20.5%
O=C(C=Cn1cnc(-c2cc(C(F)(F)F)cc(C(F)(F)F)c2)n1)NNc1cnccn1 + NC1CC1c1ccc(-c2cccc(O)c2)cc1	140 nM	148 nM	88.9 nM	171 nM	195 nM	66.7%	49.3%	45.3%	21.6%	64.8%	51.7%	42%	19.4%	69.5%	41.3%	39.7%	23.7%	76.1%	53.3%	43.1%	viability, T/C [31]: 79%; viability, T/C [32]: 70.9%; viability, T/C [33]: 68.7%; viability, T/C [34]: 74.1%; viability, T/C [35]: 73%; viability, T/C [36]: 64.1%; viability, T/C [37]: 73.9%; viability, T/C [38]: 77.3%; viability, T/C [22]: 23.4%; viability, T/C [39]: 71.2%; viability, T/C [40]: 73.6%; viability, T/C [25]: 68.1%; viability, T/C [26]: 55.3%; viability, T/C [27]: 45.8%; viability, T/C [28]: 28%
Nc1ncn(C2CC(O)C(CO)O2)c(=O)n1 (stereo not given) + NC1CCC(NC2CC2c2ccccc2)CC1	> 1000 nM	> 1000 nM	> 1000 nM	> 1000 nM	> 1000 nM	90%	74.5%	86.5%	81.3%	92.8%	81.3%	66.6%	76.7%	75.9%	76.7%	66.2%	72.4%	74.1%	80.6%	66.5%	viability, T/C [31]: 83.6%; viability, T/C [32]: 95.2%; viability, T/C [33]: 91.3%; viability, T/C [34]: 82.6%; viability, T/C [35]: 85.8%; viability, T/C [36]: 81.2%; viability, T/C [37]: 82.3%; viability, T/C [38]: 93.9%; viability, T/C [22]: 77.2%; viability, T/C [39]: 95.7%; viability, T/C [40]: 89.9%; viability, T/C [25]: 84.8%; viability, T/C [26]: 81.8%; viability, T/C [27]: 81.3%; viability, T/C [28]: 91.1%
